Among the data in ChEMBL document CHEMBL5678818, “Discovery of potent SOS1 inhibitors that block RAS activation via disruption of the RAS-SOS1 interaction” (Proc Natl Acad Sci U S A, 2019) are Activity values, retold here.

Experiment [1] addresses Calcium/calmodulin-dependent protein kinase type 1 (Homo sapiens) (UniProt Q14012). The experiment in a line: Inhibition of CAMK1 (unknown origin) assessed as residual activity at 100 nM by KINOMEscan analysis relative to control.
For experiment [2], the system named is Tyrosine-protein kinase ABL1 (Homo sapiens), P00519 [M351T]. The experiment in a line: Inhibition of phosphorylated ABL1 M351T mutant (unknown origin) assessed as residual activity at 100 nM by KINOMEscan analysis relative to control.
Experiment [3] deals with Tyrosine-protein kinase JAK2 (Homo sapiens) (UniProt O60674). The experiment in a line: Inhibition of JAK2 JH1 catalytic domain (unknown origin) assessed as residual activity at 100 nM by KINOMEscan analysis relative to control.
The target of experiment [4] is T1, Mitogen-activated protein kinase kinase kinase 7 (Homo sapiens) (UniProt O43318).
T1 sequence (whole entry): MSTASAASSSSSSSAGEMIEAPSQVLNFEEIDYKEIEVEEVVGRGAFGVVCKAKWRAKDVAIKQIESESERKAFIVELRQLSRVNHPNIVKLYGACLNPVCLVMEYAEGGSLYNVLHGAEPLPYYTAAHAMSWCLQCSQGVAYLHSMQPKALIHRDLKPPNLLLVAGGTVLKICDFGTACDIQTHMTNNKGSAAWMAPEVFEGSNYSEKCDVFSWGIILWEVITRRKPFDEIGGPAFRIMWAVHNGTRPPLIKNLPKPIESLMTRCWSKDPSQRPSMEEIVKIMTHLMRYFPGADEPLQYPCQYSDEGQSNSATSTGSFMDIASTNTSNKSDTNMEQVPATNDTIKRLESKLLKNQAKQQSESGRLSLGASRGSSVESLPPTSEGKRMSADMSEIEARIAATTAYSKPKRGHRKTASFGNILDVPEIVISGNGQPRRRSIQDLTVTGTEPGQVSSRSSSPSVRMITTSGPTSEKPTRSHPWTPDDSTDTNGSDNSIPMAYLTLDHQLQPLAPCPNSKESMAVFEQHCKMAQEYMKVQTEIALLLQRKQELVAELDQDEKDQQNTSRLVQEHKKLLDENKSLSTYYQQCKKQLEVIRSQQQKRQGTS
As to the kind of experiment: Inhibition of TAK1 (unknown origin) assessed as residual activity at 100 nM by KINOMEscan analysis relative to control.

In experiment [5] the target is Serine/threonine-protein kinase PRP4 homolog (Homo sapiens) (UniProt Q13523). The experiment in a line: Inhibition of PRP4 (unknown origin) assessed as residual activity at 100 nM by KINOMEscan analysis relative to control.
Experiment [6] deals with Serine/threonine-protein kinase SBK1 (Homo sapiens) (UniProt Q52WX2). The experiment in a line: Inhibition of SBK1 (unknown origin) assessed as residual activity at 100 nM by KINOMEscan analysis relative to control.
The target in experiment [7] is T2, Mitogen-activated protein kinase kinase kinase 3 (Homo sapiens) (UniProt Q99759).
T2 sequence (whole entry): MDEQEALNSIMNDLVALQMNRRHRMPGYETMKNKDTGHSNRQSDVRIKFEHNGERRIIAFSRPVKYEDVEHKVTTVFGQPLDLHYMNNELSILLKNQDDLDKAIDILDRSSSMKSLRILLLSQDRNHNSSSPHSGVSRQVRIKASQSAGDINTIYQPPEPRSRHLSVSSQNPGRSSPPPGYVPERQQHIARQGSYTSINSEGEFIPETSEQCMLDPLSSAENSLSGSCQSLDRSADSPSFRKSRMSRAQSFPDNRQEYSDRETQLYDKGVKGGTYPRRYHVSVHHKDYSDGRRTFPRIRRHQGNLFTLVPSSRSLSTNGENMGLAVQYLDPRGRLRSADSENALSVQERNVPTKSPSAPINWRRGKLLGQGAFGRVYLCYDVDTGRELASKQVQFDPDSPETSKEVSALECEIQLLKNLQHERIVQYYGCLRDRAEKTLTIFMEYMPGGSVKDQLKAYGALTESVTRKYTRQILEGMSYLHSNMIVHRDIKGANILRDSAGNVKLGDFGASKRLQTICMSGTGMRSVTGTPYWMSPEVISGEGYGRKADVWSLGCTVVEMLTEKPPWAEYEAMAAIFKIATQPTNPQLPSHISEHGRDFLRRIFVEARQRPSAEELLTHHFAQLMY
The experiment in a line: Inhibition of MAP3K3 (unknown origin) assessed as residual activity at 100 nM by KINOMEscan analysis relative to control.

Experiment [8] deals with T3, Aurora kinase C (Homo sapiens) (UniProt Q9UQB9).
T3 sequence (whole entry): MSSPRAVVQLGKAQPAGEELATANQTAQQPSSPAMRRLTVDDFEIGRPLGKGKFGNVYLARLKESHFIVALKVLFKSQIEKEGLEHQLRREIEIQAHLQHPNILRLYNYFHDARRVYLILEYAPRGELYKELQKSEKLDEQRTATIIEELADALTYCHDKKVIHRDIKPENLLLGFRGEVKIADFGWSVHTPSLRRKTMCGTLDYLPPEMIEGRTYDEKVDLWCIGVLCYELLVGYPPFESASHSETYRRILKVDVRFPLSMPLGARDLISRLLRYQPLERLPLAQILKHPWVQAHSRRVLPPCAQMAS
As to the kind of experiment: Inhibition of AURKC (unknown origin) assessed as residual activity at 100 nM by KINOMEscan analysis relative to control.

Experiment [9] has as its target Ribosomal protein S6 kinase alpha-2 (Homo sapiens) (UniProt Q15349). The experiment in a line: Inhibition of C-terminal RSK3 […] domain 2 (unknown origin) assessed as residual activity at 100 nM by KINOMEscan analysis relative to control.
Experiment [10] has as its target Cyclin-dependent kinase 2 (Homo sapiens) (UniProt P24941). As to the kind of experiment: Inhibition of CDK2 (unknown origin) assessed as residual activity at 100 nM by KINOMEscan analysis relative to control.

Chain of Serine/threonine-protein kinase SBK1 (Homo sapiens) (Q52WX2 whole entry): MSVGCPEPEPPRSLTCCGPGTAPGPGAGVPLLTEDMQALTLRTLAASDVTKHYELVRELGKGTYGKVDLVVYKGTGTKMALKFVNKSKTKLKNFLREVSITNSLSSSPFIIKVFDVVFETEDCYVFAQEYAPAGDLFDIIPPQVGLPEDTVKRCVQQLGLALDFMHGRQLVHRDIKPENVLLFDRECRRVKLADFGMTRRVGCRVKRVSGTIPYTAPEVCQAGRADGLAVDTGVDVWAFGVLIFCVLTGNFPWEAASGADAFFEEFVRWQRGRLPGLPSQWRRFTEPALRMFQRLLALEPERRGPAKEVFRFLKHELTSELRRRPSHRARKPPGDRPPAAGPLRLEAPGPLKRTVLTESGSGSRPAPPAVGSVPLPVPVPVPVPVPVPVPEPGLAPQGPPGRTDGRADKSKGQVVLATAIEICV
Chain of Tyrosine-protein kinase JAK2 (Homo sapiens) (O60674 whole entry, the tested form may be a part): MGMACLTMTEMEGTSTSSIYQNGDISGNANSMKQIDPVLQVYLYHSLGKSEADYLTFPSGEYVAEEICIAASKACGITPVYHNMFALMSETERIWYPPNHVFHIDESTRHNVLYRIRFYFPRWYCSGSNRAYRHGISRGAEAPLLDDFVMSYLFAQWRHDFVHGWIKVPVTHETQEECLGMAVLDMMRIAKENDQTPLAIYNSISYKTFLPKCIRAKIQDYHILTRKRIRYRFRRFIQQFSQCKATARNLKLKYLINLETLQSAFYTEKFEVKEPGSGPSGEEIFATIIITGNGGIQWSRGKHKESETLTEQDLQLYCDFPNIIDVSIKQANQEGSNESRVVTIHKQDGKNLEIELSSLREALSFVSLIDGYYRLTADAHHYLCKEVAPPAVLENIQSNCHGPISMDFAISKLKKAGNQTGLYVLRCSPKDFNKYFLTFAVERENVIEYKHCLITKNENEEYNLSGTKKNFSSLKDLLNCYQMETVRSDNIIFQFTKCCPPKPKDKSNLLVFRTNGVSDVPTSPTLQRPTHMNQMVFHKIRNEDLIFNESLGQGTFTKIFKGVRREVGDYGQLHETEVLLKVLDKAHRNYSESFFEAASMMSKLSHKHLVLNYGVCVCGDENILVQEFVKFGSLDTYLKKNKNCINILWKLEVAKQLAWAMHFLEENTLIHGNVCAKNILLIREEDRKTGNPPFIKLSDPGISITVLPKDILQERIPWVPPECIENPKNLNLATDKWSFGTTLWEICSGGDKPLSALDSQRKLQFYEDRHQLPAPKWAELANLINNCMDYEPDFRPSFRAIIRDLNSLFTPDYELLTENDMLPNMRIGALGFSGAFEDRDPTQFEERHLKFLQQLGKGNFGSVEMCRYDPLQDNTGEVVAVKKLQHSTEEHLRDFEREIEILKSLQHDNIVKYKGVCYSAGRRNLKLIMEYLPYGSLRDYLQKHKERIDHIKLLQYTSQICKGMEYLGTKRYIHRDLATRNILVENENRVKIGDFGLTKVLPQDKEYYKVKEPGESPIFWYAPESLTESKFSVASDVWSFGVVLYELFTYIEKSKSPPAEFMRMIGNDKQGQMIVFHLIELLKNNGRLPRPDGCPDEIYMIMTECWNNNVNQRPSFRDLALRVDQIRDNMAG
Chain of Ribosomal protein S6 kinase alpha-2 (Homo sapiens) (Q15349 whole entry): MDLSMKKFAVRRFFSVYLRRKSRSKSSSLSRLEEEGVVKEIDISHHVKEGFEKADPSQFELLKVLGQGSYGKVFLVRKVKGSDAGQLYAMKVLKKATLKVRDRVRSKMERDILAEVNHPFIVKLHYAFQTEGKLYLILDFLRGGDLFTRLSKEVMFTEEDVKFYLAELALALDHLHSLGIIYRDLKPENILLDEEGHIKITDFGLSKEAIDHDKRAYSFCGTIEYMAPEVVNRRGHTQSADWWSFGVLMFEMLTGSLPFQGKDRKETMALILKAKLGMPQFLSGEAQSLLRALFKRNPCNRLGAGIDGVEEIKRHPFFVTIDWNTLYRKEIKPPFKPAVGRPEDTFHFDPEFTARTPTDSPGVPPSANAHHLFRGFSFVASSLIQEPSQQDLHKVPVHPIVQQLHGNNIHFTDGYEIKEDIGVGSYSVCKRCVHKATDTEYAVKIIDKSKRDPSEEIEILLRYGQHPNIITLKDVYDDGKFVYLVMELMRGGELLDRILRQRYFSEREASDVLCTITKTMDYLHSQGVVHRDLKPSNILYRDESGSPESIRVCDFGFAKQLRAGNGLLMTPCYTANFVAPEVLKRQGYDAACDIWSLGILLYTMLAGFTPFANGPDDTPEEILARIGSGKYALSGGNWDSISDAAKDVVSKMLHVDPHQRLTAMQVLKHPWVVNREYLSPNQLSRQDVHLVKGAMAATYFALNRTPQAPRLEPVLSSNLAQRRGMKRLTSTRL
Chain of Calcium/calmodulin-dependent protein kinase type 1 (Homo sapiens) (Q14012 whole entry, looked up): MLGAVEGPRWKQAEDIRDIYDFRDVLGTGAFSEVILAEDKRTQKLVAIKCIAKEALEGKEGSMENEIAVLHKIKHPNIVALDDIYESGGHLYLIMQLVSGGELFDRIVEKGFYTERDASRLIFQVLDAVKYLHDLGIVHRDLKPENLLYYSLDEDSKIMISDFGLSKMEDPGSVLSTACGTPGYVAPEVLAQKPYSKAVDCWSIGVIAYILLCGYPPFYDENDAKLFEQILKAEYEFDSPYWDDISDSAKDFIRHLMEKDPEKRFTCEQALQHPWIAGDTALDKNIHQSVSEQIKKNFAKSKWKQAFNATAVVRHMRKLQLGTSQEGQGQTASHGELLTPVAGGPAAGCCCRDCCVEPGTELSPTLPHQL
Chain of Serine/threonine-protein kinase PRP4 homolog (Homo sapiens) (Q13523 whole entry): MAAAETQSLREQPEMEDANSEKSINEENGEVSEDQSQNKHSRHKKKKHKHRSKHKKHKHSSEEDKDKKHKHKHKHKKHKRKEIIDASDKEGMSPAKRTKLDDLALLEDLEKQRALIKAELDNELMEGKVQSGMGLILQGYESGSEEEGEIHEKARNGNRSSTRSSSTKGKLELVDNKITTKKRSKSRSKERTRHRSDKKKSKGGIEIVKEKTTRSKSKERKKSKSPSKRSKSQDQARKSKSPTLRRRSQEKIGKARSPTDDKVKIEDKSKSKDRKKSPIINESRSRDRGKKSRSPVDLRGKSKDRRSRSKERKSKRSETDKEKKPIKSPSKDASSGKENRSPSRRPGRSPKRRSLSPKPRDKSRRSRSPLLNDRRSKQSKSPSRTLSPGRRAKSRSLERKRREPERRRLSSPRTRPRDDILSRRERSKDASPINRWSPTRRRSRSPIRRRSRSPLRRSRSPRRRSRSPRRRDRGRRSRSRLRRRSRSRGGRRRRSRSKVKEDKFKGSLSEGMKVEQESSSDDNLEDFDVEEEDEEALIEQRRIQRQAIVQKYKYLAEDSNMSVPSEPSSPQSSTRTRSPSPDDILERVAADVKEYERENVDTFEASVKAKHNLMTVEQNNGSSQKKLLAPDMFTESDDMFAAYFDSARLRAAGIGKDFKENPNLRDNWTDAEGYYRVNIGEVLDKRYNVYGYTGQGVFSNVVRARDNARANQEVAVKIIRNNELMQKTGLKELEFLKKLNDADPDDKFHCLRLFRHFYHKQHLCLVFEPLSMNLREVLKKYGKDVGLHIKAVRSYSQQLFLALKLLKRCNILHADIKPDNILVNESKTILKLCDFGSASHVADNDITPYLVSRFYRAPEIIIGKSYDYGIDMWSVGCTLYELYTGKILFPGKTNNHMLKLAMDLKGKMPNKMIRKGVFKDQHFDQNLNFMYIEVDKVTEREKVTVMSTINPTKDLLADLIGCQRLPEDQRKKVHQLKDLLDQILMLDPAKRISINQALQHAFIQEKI

Take `COc1cc2ncnc(N[C@H](C)c3cccc4ccccc34)c2cc1OC`: the Activity in experiment [1] came to 100%; in experiment [2], 100%; in experiment [3] it was 93%; in [4], 83%; in [5], 95%; in [6], 81%. The Activity in [7] worked out at 90%; in experiment [8] it was 78%; in [9] it was 91%; in experiment [10], 100%.
